Experimental data taken from patent US8877748B2, “Heterocyclic fused anthraquinone derivatives, manufacturing method and pharmaceutical composition using thereof” (National Defense Medical Center, priority 2012, dated 2014).

How the values were obtained:
[1] = test system: human tumor cell lines; assay: NCI one-dose screening, Mean / Delta / Range of growth percent over all tested cell lines; assay type: cell-based; settings: 10 μM
[2] = test system: KM12; assay: NCI one-dose screening, colon cancer KM12; assay type: cell-based, human; settings: 10 μM
[3] = test system: MOLT-4; assay: NCI one-dose screening, leukemia MOLT-4; assay type: cell-based, human; settings: 10 μM
[4] = test system: DU145; assay: NCI one-dose screening, prostate cancer DU145; assay type: cell-based, human; settings: 10 μM
[5] = test system: HCC-2998; assay: NCI one-dose screening, colon cancer HCC-2998; assay type: cell-based, human; settings: 10 μM
[6] = test system: MDA-MB-468; assay: NCI one-dose screening, breast cancer MDA-MB-468; assay type: cell-based, human; settings: 10 μM
[7] = test system: HOP-62; assay: NCI one-dose screening, non-small cell lung cancer HOP-62; assay type: cell-based, human; settings: 10 μM
[8] = test system: SNB-19; assay: NCI one-dose screening, CNS cancer SNB-19; assay type: cell-based, human; settings: 10 μM
[9] = test system: NCI-H23; assay: NCI one-dose screening, non-small cell lung cancer NCI-H23; assay type: cell-based, human; settings: 10 μM
[10] = test system: HL-60, TB; assay: NCI one-dose screening, leukemia HL-60, TB; assay type: cell-based, human; settings: 10 μM
[11] = test system: U251; assay: NCI one-dose screening, CNS cancer U251; assay type: cell-based, human; settings: 10 μM
[12] = test system: MCF7; assay: NCI one-dose screening, breast cancer MCF7; assay type: cell-based, human; settings: 10 μM
[13] = test system: 786-O; assay: NCI one-dose screening, renal cancer 786-O; assay type: cell-based, human; settings: 10 μM
[14] = test system: BT-549; assay: NCI one-dose screening, breast cancer BT-549; assay type: cell-based, human; settings: 10 μM
[15] = test system: HCT-116; assay: NCI one-dose screening, colon cancer HCT-116; assay type: cell-based, human; settings: 10 μM
[16] = test system: NCI-H226; assay: NCI one-dose screening, non-small cell lung cancer NCI-H226; assay type: cell-based, human; settings: 10 μM
[17] = test system: SF-539; assay: NCI one-dose screening, CNS cancer SF-539; assay type: cell-based, human; settings: 10 μM
[18] = test system: UACC-257; assay: NCI one-dose screening, melanoma UACC-257; assay type: cell-based, human; settings: 10 μM
[19] = test system: A549/ATCC; assay: NCI one-dose screening, non-small cell lung cancer A549/ATCC; assay type: cell-based, human; settings: 10 μM
[20] = test system: OVCAR-3; assay: NCI one-dose screening, ovarian cancer OVCAR-3; assay type: cell-based, human; settings: 10 μM
[21] = test system: COLO 205; assay: NCI one-dose screening, colon cancer COLO 205; assay type: cell-based, human; settings: 10 μM
[22] = test system: OVCAR-5; assay: NCI one-dose screening, ovarian cancer OVCAR-5; assay type: cell-based, human; settings: 10 μM
[23] = test system: PC-3; assay: NCI one-dose screening, prostate cancer PC-3; assay type: cell-based, human; settings: 10 μM
[24] = test system: SF-295; assay: NCI one-dose screening, CNS cancer SF-295; assay type: cell-based, human; settings: 10 μM
[25] = test system: SK-MEL-5; assay: NCI one-dose screening, melanoma SK-MEL-5; assay type: cell-based, human; settings: 10 μM
[26] = test system: SK-MEL-2; assay: NCI one-dose screening, melanoma SK-MEL-2; assay type: cell-based, human; settings: 10 μM
[27] = test system: MDA-MB-231/ATCC; assay: NCI one-dose screening, breast cancer MDA-MB-231/ATCC; assay type: cell-based, human; settings: 10 μM
[28] = test system: CAKI-1; assay: NCI one-dose screening, renal cancer CAKI-1; assay type: cell-based, human; settings: 10 μM
[29] = test system: UACC-62; assay: NCI one-dose screening, melanoma UACC-62; assay type: cell-based, human; settings: 10 μM
[30] = test system: RXF, 393; assay: NCI one-dose screening, renal cancer RXF, 393; assay type: cell-based, human; settings: 10 μM
[31] = test system: SF-268; assay: NCI one-dose screening, CNS cancer SF-268; assay type: cell-based, human; settings: 10 μM
[32] = test system: SNB-75; assay: NCI one-dose screening, CNS cancer SNB-75; assay type: cell-based, human; settings: 10 μM
[33] = test system: OVCAR-8; assay: NCI one-dose screening, ovarian cancer OVCAR-8; assay type: cell-based, human; settings: 10 μM
[34] = test system: SK-OV-3; assay: NCI one-dose screening, ovarian cancer SK-OV-3; assay type: cell-based, human; settings: 10 μM
[35] = test system: SK-MEL-28; assay: NCI one-dose screening, melanoma SK-MEL-28; assay type: cell-based, human; settings: 10 μM
[36] = test system: M14; assay: NCI one-dose screening, melanoma M14; assay type: cell-based, human; settings: 10 μM
[37] = NCI one-dose screening, renal cancer A489; assay type: cell-based, human; settings: 10 μM
[38] = test system: IGROV1; assay: NCI one-dose screening, ovarian cancer IGROV1; assay type: cell-based, human; settings: 10 μM
[39] = test system: NCI-H522; assay: NCI one-dose screening, non-small cell lung cancer NCI-H522; assay type: cell-based, human; settings: 10 μM
[40] = test system: SR; assay: NCI one-dose screening, leukemia SR; assay type: cell-based, human; settings: 10 μM
[41] = test system: UO-31; assay: NCI one-dose screening, renal cancer UO-31; assay type: cell-based, human; settings: 10 μM
[42] = test system: HCT-15; assay: NCI one-dose screening, colon cancer HCT-15; assay type: cell-based, human; settings: 10 μM
[43] = test system: MALME-3M; assay: NCI one-dose screening, melanoma MALME-3M; assay type: cell-based, human; settings: 10 μM
[44] = test system: ACHN; assay: NCI one-dose screening, renal cancer ACHN; assay type: cell-based, human; settings: 10 μM
[45] = test system: SN12C; assay: NCI one-dose screening, renal cancer SN12C; assay type: cell-based, human; settings: 10 μM
[46] = test system: HS 578-T; assay: NCI one-dose screening, breast cancer HS 578-T; assay type: cell-based, human; settings: 10 μM; Breast cancer
[47] = test system: PC-3 prostate cancer cell line; assay: SRB assay cell viability, PC-3 prostate cancer cell line; assay type: cell-based, human; settings: Homo sapiens, PC-3 prostate cancer cell line, Table II prints no unit, μM printed, read-out: SRB assay: 50% inhibition of cancer cell proliferation of sample concentration (IC50) of PC-3 prostate cancer cell line
[48] = test system: LOX IMVI; assay: NCI one-dose screening, melanoma LOX IMVI; assay type: cell-based, human; settings: 10 μM
[49] = test system: HT29; assay: NCI one-dose screening, colon cancer HT29; assay type: cell-based, human; settings: 10 μM
[50] = test system: K562cell line; assay: NCI one-dose screening, leukemia K562; assay type: cell-based, human; settings: 10 μM
[51] = test system: NCI-H460; assay: NCI one-dose screening, non-small cell lung cancer NCI-H460; assay type: cell-based, human; settings: 10 μM
[52] = test system: NCl/ADR-RES; assay: NCI one-dose screening, breast cancer NCl/ADR-RES; assay type: cell-based, human; settings: 10 μM; listed under Ovarian cancer
[53] = test system: EKVX; assay: NCI one-dose screening, non-small cell lung cancer EKVX; assay type: cell-based, human; settings: 10 μM
[54] = test system: PRMI-8226 cell line; assay: NCI one-dose screening, leukemia PRMI-8226; assay type: cell-based, human; settings: 10 μM
[55] = test system: T-47D; assay: NCI one-dose screening, breast cancer T-47D; assay type: cell-based, human; settings: 10 μM
[56] = test system: MDA, -MB-435; assay: NCI one-dose screening, breast cancer MDA, -MB-435; assay type: cell-based, human; settings: 10 μM; listed under Melanoma
[57] = test system: TK-10; assay: NCI one-dose screening, renal cancer TK-10; assay type: cell-based, human; settings: 10 μM
[58] = test system: HOP-92; assay: NCI one-dose screening, non-small cell lung cancer HOP-92; assay type: cell-based, human; settings: 10 μM

Structure (SMILES): CSc1ccc(Sc2cc3c(c4nsnc24)C(=O)c2ccccc2C3=O)cc1 [C43, 4-(4-(methylthio)phenylthio)anthra[2,1-c] [1,2,5]thiadiazol-6,11-dione]
- Growth Percent Delta ([1]; delta over all cell lines): 40.76%
- Growth Percent Mean ([1]; mean over all cell lines): 96.80%
- Growth Percent Range ([1]; range over all cell lines): 72.06%
- Growth Percent KM12 [2]: 100.42%
- Growth Percent MOLT-4 [3]: 59.93%
- Growth Percent DU145 [4]: 101.05%
- Growth Percent HCC-2998 [5]: 111.01%
- Growth Percent MDA-MB-468 [6]: 82.25%
- Growth Percent HOP-62 [7]: 102.09%
- Growth Percent SNB-19 [8]: 101.61%
- Growth Percent NCI-H23 [9]: 81.49%
- Growth Percent HL-60(TB) [10]: 105.25%
- Growth Percent U251 [11]: 103.89%
- Growth Percent MCF7 [12]: 82.87%
- Growth Percent 786-0 [13]: 109.83%
- Growth Percent BT-549 [14]: 107.82%
- Growth Percent HCT-116 [15]: 101.97%
- Growth Percent NCI-H226 [16]: 79.69%
- Growth Percent SF-539 [17]: 96.48%
- Growth Percent UACC-257 [18]: 109.51%
- Growth Percent A549/ATCC [19]: 104.69%
- Growth Percent OVCAR-3 [20]: 102.89%
- Growth Percent COLO 205 [21]: 117.30%
- Growth Percent OVCAR-5 [22]: 108.31%
- Growth Percent PC-3 [23]: 78.37%
- Growth Percent SF-295 [24]: 98.897%
- Growth Percent SK-MEL-5 [25]: 101.45%
- Growth Percent SK-MEL-2 [26]: 89.27%
- Growth Percent MDA-MB-231/ATCC [27]: 78.80%
- Growth Percent CAKI-1 [28]: 99.44%
- Growth Percent UACC-62 [29]: 110.99%
- Growth Percent RXF 393 [30]: 106.98%
- Growth Percent SF-268 [31]: 89.67%
- Growth Percent SNB-75 [32]: 75.08%
- Growth Percent OVCAR-8 [33]: 97.37%
- Growth Percent SK-OV-3 [34]: 102.46%
- Growth Percent SK-MEL-28 [35]: 119.66%
- Growth Percent M14 [36]: 107.55%
- Growth Percent A498 [37]: 56.04%
- Growth Percent IGROV1 [38]: 95.67%
- Growth Percent NCI-H522 [39]: 95.39%
- Growth Percent SR [40]: 96.31%
- Growth Percent UO-31 [41]: 67.56%
- Growth Percent HCT-15 [42]: 111.56%
- Growth Percent MALME-3M [43]: 104.58%
- Growth Percent ACHN [44]: 103.64%
- Growth Percent SN12C [45]: 98.04%
- Growth Percent HS 578T [46]: 96.47%
- IC50 [47]: > 15 µM
- Growth Percent LOX IMVI [48]: 68.98%
- Growth Percent HT29 [49]: 102.26%
- Growth Percent K562 [50]: 67.50%
- Growth Percent NCI-H460 [51]: 106.20%
- Growth Percent NCI/ADR-RES [52]: 91.79%
- Growth Percent EKVX [53]: 113.82%
- Growth Percent RPMI-8226 [54]: 88.58%
- Growth Percent T-47D [55]: 86.56%
- Growth Percent MDA-MB-435 [56]: 118.40%
- Growth Percent TK-10 [57]: 128.10%
- Growth Percent HOP-92 [58]: 04.31%
